This is an account of results in patent publication US12202845.

For the data set the following is noted: from CCn1c(-c2cccnc2[C@H](C)OC)c(CC(C)(C)CO)c2cc(C3=CCCN(CC(NC(=O)OC(C)(C)C)C(=O)N4CCC[C@@H](C(=O)O)N4)C3)ccc21; ester bond; 18-membered ring; EDCI.HCl/HOBt/DIPEA; DCM; 7.1 mM; 30.0 °C; 16.0 h.

In turn, `CCn1c(-c2cccnc2[C@H](C)OC)c2c3cc(ccc31)C1=CCCN(C1)CC(NC(=O)OC(C)(C)C)C(=O)N1CCC[C@H](N1)C(=O)OCC(C)(C)C2` (stereo partly shown) showed a ring closure, isolated yield of 40%.
